Test results as given in US20260055061A1, “HALOPHTHALIMIDE COMPOUNDS AND METHODS OF USE AGAINST TBI, INFLAMMATORY DISORDER, AUTOIMMUNE DISORDER, NEURODEGENERATIVE DISEASE OR VIRAL INFECTION” (The United States of America, as represented by the …, priority 2022, published 2026).
Entries after “also recorded” stand apart in the source; their conditions may differ.

Experiments:
IL-5 = test: LPS model of inflammation in rats: IL-5 in plasma and cortex; type: in vivo, rat; conditions: both doses; LPS-challenged rats
TNF-α [1] = test: LPS-induced TNF-α production in RAW 264.7 cells (ELISA); type: cell-based, mouse; conditions: for TNF-α level / TNF-α % Δ: 1 μM, LPS-challenged RAW 264.7 cells; for TNF-α % Δ: percentage of vehicle control value (control = 100%), mean ± S.E.M., n = 3; for LPS-induced TNF-α in cell culture media (in words): 100-1000 nM; for concentration from which TNF-α was significantly reduced: 100-1000 nM tested, vs LPS+Vehicle
Method in brief: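 Sandwich ELISA of TNF-α secreted into the media of RAW 264.7 cultures, with a biotinylated detection antibody, avidin-HRP and TMB substrate. Absorbance read at 450 nm with 570 nm background subtraction. Levels interpolated from a TNF-α protein standard curve.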

[2] = test system: LPS-induced nitrite in RAW 264.7 cells; test: LPS-induced nitrite production in RAW 264.7 cells (Griess reagent / fluorometric kit); type: cell-based, mouse; conditions: for nitrite levels / nitrite level, % of vehicle control / nitrite inhibitory activity (comparison in words): 1 μM; for nitrite levels / nitrite level, % of vehicle control: LPS-challenged RAW 264.7 cells; for nitrite level, % of vehicle control: percentage of vehicle control value (control = 100%), mean ± S.E.M., n = 3; for nitrite inhibitory activity (comparison in words): tetrafluoro vs corresponding difluoro or stereoisomer; for LPS-induced nitrite in cell culture media (in words): 100-1000 nM; for concentration from which nitrite levels were significantly reduced: 100-1000 nM tested, vs LPS+Vehicle
Method in brief: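 Nitrite in culture media of LPS-challenged RAW 264.7 cells measured as a stable surrogate for NO, using Griess reagent (sulfanilamide, then N-1-naphthylethylenediamine, 10 min each in the dark). Absorbance at 550 nm, with levels read against a nitrite standard curve ([…]) made in matching medium.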

TNF-α [3] = test: LPS model of inflammation in rats: TNF-α in plasma and brain; type: in vivo, rat; conditions: for TNF-α plasma levels (in words): both doses (TFBP 16.25/32.5, TFNBP 14.33/28.66 mg/kg i.p.), 4 hr post LPS
Protocol: LPS model of inflammation in rats: Male Fischer 344 rats (Charles River Laboratories, Wilmington, MA, USA) (approx. 150 g weight) were randomly assigned across groups, and thereafter administered either vehicle (Veh), or TFBP or TFNBP. Two doses of TFBPs were evaluated: (TFBP: 16.25 mg/kg or 32.5 mg/kg, and for TFNBP: 14.33 mg/kg or 28.66 mg/kg), i.p. These compounds were suspended in 1% carboxymethyl cellulose (CMC) in saline (0.9%), and administered 60 min prior to either administration of LPS (1 mg/kg, Sigma, St Louis, MO, E. coli O55:B5 in saline (0.9%), 0.1 ml/kg i.p.) or of Vehicle (CMC in saline (0.9%) 0.1 ml/kg, i.p.). […] At 4 hr following LPS or Veh, animals were euthanized, and plasma and brain (hippocampus) tissue samples were collected and stored at −80° C. Brain samples were later sonicated in a Tris-based lysis buffer (Mesoscale Discovery, Gaithersburg, MD, USA) with protease/phosphatase inhibitors (Halt™ Protease and Phosphatase Inhibitor Cocktail, ThermoFisher Scientific, Asheville, NC, USA, diluted to 3×). Next, brain samples were centrifuged (10,000 g, 10 min, 4° C.), and protein concentrations were determined by Bicinchoninic acid assay (BCA, ThermoFisher Scientific, Asheville, NC, USA). An ELISA for TNF-α, IL-6, IL-1B, IL-10 and IL-13 was later performed following the manufacturer's protocol (Mesoscale Discovery).
Four hours after LPS injection, animals were euthanized, and blood and brain tissue were collected and placed on wet ice. Plasma was quickly separated from blood by centrifuge at 10,000 g. 5 min, 4° C., and brain regions of cortex, hippocampus and the rest of brain were dissected into separate vials on wet ice, then stored at −80° C. Brain tissues were then sonicated in a TRIS based lysis buffer (Mesoscale Discovery) with 3× protease/phosphatase inhibitors (Halt™ Protease and Phosphatase Inhibitor Cocktail, Thermo Fisher Scientific), were then centrifuged at 10,000 g, 10 min, 4° C., and protein concentrations were measured by Bicinchoninic acid assay (BCA, Thermo Fisher Scientific). Rat plasma, cerebral cortical and hippocampal samples were then analyzed by multi-proinflammatory cytokines ELISA (V-PLEX Proinflammatory Panel 2 Rat Kit, Mesoscale Discovery), following the manufacturer's protocol. The processes and dosages of the experiment of drug treatment effects on LPS rat model was made on the basis of our previous studies.

[4] = high dose (TFBP 32.5, TFNBP 28.66 mg/kg i.p.)
[5] = low dose (TFBP 16.25, TFNBP 14.33 mg/kg i.p.)

Structure (SMILES) | IL-5 expression in plasma (in words) (IL-5) | TNF-α level (TNF-α [1]) | TNF-α % Δ (TNF-α [1]) | LPS-induced TNF-α in cell culture media (in words) (TNF-α [1]) | concentration from which TNF-α was significantly reduced (TNF-α [1]) | nitrite levels [2] | nitrite level, % of vehicle control [2] | nitrite inhibitory activity (comparison in words) [2] | LPS-induced nitrite in cell culture media (in words) [2] | concentration from which nitrite levels were significantly reduced [2] | TNF-α plasma levels (in words) (TNF-α [3]) | Cerebral cortex TNF-α, change vs. LPS group (TNF-α [3]; [4]) | TNF-α plasma levels, decline vs. LPS alone group (TNF-α [3]; higher dose (TFBP 32.5 mg/kg i.p.), 4 hr post LPS 1 mg/kg) | Cerebral cortex TNF-α, change vs. LPS group (TNF-α [3]; [5]) | LPS-induced elevation in TNF-α levels (in words) (TNF-α [1]; 0.6-60 μM, LPS 60 ng/mL, 24 h) | Nitrite, % Change versus Control (± s.e.m.) ([2]; 10 uM, LPS-activated RAW 264.7 cells) | drop in LPS-induced nitrite production ([2]; 10 μM, stimulated RAW cells) | LPS-induced elevation in nitrite levels (in words) ([2]; 0.6-60 μM, LPS 60 ng/mL, 24 h) | nitrite levels (in words) ([2]; six-compound pomalidomide grouping, RAW cell assay, FIGS. 12-13) | TNF-α in plasma and brain (TNF-α [3]; 29.57 mg/kg i.p., LPS rat model)
CC1(C)[C@@H]2CC[C@@]1(C)[C@@H](N1C(=O)c3c(F)c(F)c(F)c(F)c3C1=O)C2 [Compound 14, 4,5,6,7-Tetrafluoro-2-((1R,2S,4R)-1,7,7-trimethylbicyclo[2.2.1]heptan-2-yl) isoindoline-1,3-dione] | reduced IL-5 expression in plasma | 55-74% | 55 ± 1% | significantly decreased | ≥ 600 nM | 25-36% | 26 ± 3% | more potent nitrite inhibitory activity | significantly decreased | ≥ 100 nM | reduced this increase | −58.3% | −76% | −41.7% |  |  |  |  |  | 
O=C1c2c(F)c(F)c(F)c(F)c2C(=O)N1C1CC2CCC1C2 (stereo not drawn) [Compound 16, 2-Endo-(bicyclo[2.2.1]heptan-2-yl)-4,5,6,7-tetrafluoroisoindoline-1,3-dione] | reduced IL-5 expression in plasma | 55-74% | 74 ± 3% | significantly decreased; also recorded: effective in decreasing levels of nitrite and TNF-α | ≥ 300 nM | 25-36% | 36 ± 4% | more potent nitrite inhibitory activity | significantly decreased; also recorded: effective in decreasing levels of nitrite and TNF-α | ≥ 300 nM | reduced this increase | −41.7% |  | only effectively did so at the higher tested dose |  |  |  |  |  | 
Nc1ccc(F)c2c1C(=S)N(C1CCC(=S)NC1=O)C2=O (stereo not drawn) [Compound 30, 4-amino-7-fluoro-2-(2-oxo-6-thioxopiperidin-3-yl)-3-thioxoisoindolin-1-one] |  |  |  |  |  |  |  |  |  |  |  |  |  |  | significantly lowered | 35.3 ± 3.0% | 65% | significantly lowered | superior | significantly reduce
